Data from patent US8604044B2, “Quinazoline based EGFR inhibitors containing a zinc binding moiety” (Curis, Inc., priority 2006, dated 2013).
Like-named read-outs stand apart in the source and are kept apart here.

Columns and labels:
[1] = test system: A549 NSCLC Xenograft; assay: A549 NSCLC xenograft model; type: in vivo, mice; settings: FIG. 11B
Procedure: (§1) 1-10×10^6 human cancer cells were implanted subcutaneously to the athymic (nu/nu) mice. When the tumors reached about 100 mm^3 in volume, the mice were treated with the compound by tail vein infusion. Routinely 5 groups (8-12 mice per group) are needed for a typical efficacy study, including one negative control, one positive control, and three testing groups for 3 dose levels of the same compound. Usually a 7-7-5 (on-off-on) regimen was used for one typical study. The tumor size was measured with an electronic caliper and body weight measured with a scale twice weekly. The tumors were removed from euthanized mice at the end of the study. One half of each tumor was frozen in dry ice and stored at −80° C. for PK or Western blot analysis. The other half was fixed with formalin. The fixed tissues were processed, embedded in paraffin and sectioned for immunohistochemistry staining.

[2] = test system: HDAC; assay: HDAC fluorimetric assay (HDAC enzymatic activity, HeLa nuclear extract); type: biochemical; settings: HeLa nuclear extract; read-out: HDAC IC50 grading
Procedure: HDAC inhibitors were screened using an HDAC fluorimetric assay kit (AK-500, Biomol, Plymouth Meeting, Pa.).
Each assay was setup as follows: Defrosted all kit components and kept on ice until use. […] Prepared dilutions of Trichostatin A (TSA, positive control) and tested compounds in assay buffer (5× of final concentration). Diluted Fluor de Lys™ Substrate in assay buffer to 100 uM (50 fold=2× final). Diluted Fluor de Lys™ developer concentrate 20-fold (e.g. 50 μl plus 950 μl Assay Buffer) in cold assay buffer. Second, diluted the 0.2 mM Trichostatin A 100-fold in the 1× Developer (e.g. 10 μl in 1 ml; final Trichostatin A concentration in the 1× Developer=2 μM; final concentration after addition to HDAC/Substrate reaction=1 μM). Added Assay buffer, diluted trichostatin A or test inhibitor to appropriate wells of the microtiter plate. Added diluted HeLa extract or other HDAC sample to all wells except for negative controls.

[3] = biological target: T1, human EGFR (Homo sapiens, UniProt P00533); assay: HTScan EGF Receptor Kinase Assay; type: biochemical
T1 construct: human EGFR (His672-Ala1210); purchased Cell Signaling Technologies; host or cells: baculovirus expression system
T1 sequence (P00533 672-1210): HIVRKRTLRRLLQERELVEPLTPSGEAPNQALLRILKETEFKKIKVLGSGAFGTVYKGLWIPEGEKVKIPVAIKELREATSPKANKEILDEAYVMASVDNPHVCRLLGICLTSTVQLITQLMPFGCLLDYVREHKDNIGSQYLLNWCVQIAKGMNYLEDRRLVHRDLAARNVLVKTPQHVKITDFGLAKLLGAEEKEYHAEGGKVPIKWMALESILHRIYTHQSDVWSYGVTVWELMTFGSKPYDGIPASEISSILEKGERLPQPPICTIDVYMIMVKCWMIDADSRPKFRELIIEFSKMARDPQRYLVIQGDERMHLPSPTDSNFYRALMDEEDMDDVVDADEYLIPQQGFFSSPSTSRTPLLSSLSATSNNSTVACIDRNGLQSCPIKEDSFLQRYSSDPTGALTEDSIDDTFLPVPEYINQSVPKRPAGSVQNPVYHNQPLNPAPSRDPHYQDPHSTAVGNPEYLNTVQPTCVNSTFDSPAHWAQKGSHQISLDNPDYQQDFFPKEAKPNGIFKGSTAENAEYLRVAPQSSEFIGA
Procedure: The ability of compounds to inhibit receptor kinase (EGFR) activity was assayed using HTScan™ EGF Receptor Kinase Assay Kits (Cell Signaling Technologies, Danvers, Mass.). […] The protein was purified by one-step affinity chromatography using glutathione-agarose.
Immediately transfer enzyme from −80° C. to ice. Allowed enzyme to thaw on ice. […] Returned immediately to ice. […] Incubated reaction plate at room temperature for 30 minutes. […] Added 100 μl/well primary antibody. Incubated at room temperature for 60 minutes. […] Added 100 μl/well diluted antibody. Incubated at room temperature for 30 minutes. […] Incubated at room temperature for 5 minutes.

[4] = biological target: T2, HER2 (Homo sapiens, UniProt P04626); assay: Radioisotope assay for HER2; type: biochemical; settings: read-out: HER2/ErB2 IC50 grading
T2 construct: human HER2 amino acids 679-1255; host or cells: baculovirus in Sf9 insect cells
T2 sequence (P04626 679-1255): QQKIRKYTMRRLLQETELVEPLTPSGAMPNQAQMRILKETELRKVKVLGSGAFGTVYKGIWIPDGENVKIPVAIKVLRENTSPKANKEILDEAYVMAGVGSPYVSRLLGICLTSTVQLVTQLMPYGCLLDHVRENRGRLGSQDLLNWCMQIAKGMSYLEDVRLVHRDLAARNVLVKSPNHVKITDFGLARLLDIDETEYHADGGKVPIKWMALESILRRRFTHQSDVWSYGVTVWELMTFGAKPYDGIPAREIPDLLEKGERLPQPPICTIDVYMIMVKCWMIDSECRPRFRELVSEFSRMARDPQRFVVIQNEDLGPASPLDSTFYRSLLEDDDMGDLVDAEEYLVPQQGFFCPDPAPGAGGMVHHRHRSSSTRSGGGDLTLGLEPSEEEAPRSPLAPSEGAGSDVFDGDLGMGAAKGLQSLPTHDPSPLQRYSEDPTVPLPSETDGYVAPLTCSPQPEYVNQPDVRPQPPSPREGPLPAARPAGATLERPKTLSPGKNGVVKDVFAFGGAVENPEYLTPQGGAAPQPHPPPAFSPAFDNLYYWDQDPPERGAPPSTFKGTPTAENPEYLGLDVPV
Procedure: Protocol for Radioisotope Assay for HER2
10 nM HER2 and 0.1 mg/ml polyEY were placed in the reaction buffer and 2 mM MnCl2, 1 μM ATP and 1% DMSO final were added. The reaction mixture was incubated for 2 hours at room temperature.
MW=91.6 kDa. […] Enzyme is in 25 mM Tris-HCl, pH 8.0, 100 mM NaCl, 0.05% Tween-20, 50% glycerol, 10 mM reduced glutathione, and 3 mM DTT.

[5] = Captisol formulation of compound 12: solubility, pH, dilution, stability
[6] = Pharmacokinetic study of compound 12 formulation in rats; type: in vivo; settings: 20 and 60 mg/kg iv, hydrochloride salt in 30% CAPTISOL, over thirty hours, FIG. 14
[7] = test system: HDAC in MDA-MB-468 breast cancer cell line; assay: Ac-H4 / Ac-H3 accumulation in MDA-MB-468 breast cancer cell line (FIG. 2); type: cell-based; settings: MDA-MB-468, Ac-H4 and Ac-H3 accumulation
[8] = Pharmacokinetic study of compound 12 formulation in mice; type: in vivo; settings: IP Dose 20 mg/kg, hydrochloride salt in 30% CAPTISOL
[9] = both, Sprague Dawley, rat, in vivo, iv, 8 days
[10] = male, CD-1, mouse, in vivo, ip, 7 days
[11] = test system: EGFR in MDA-MB-468 breast cancer cell line; assay: EGFR phosphorylation in MDA-MB-468 breast cancer cell line (FIG. 2); type: cell-based; settings: MDA-MB-468, FIG. 2
[12] = test system: HCT-116 (colon) and SKBr3 (breast) cancer cells; assay: Induction of apoptosis, Caspase 3&7 activity (FIG. 4); type: cell-based; settings: 24 hours
[13] = test system: HPAC pancreatic cancer cells; assay: HPAC pancreatic cancer xenograft; type: in vivo, mice; settings: 120 mg/kg in 30% CAPTISOL (iv/ip) daily vs 50 mg/kg erlotinib (po) or vehicle, FIG. 12A
Procedure: as §1

[14] = test system: Caki-1; assay: Cell proliferation assay (Table D); type: cell-based; settings: Homo sapiens, Renal carcinoma, read-out: IC50 grading Caki-1
[15] = male, CD-1, mouse, in vivo, iv, 9 days
[16] = test system: various cancer cell lines; assay: Cell proliferation assay, various cancer cell lines (general statements); type: cell-based; settings: Table D
Procedure: Cancer cell lines were plated at 5,000 to 10,000 per well in 96-well flatted bottomed plates with various concentration of compounds. The cells were incubated with compounds for 72 hours in the presence of 0.5% of fetal bovine serum. Growth inhibition was accessed by adenosine triphosphate (ATP) content assay using Perkin Elmer ATPlite kit. ATPlite is an ATP monitoring system based on firefly luciferase. Briefly, 25 μl of mammalian cell lysis solution was added to 50 μl of phenol red-free culture medium per well to lyse the cells and stabilize the ATP. 25 μl of substrate solution was then added to the well and subsequently the luminescence was measured.

[17] = Pharmacokinetic study of compound 12 formulation in mice; type: in vivo; settings: hydrochloride salt in 30% CAPTISOL
Procedure: Drug Preparation and Administration. […] Compound was administered via an intravenous (iv) infusion.
Plasma samples were prepared by protein precipitation. An internal standard was added into plasma samples. […] The supernatant was then injected onto LC/MS/MS.
Tissues were homogenized in 0.8 ml water. An internal standard was added into the tissue homogenates.

For `C#Cc1cccc(Nc2ncnc3cc(OCCOC)c(OCCOC)cc23)c1` [Erlotinib], which “effect on tumor size as compared to control” value [1] is on record?
The value was “did not significantly affect tumor size”.

For `O=C(CCCCCNCc1ccc(-c2ccc3ncnc(Nc4ccc(OCc5cccc(F)c5)c(Cl)c4)c3c2)o1)NO` [Compound 177, 6-((5-(4-(3-chloro-4-(3-fluorobenzyloxy)phenylamino)quinazolin-6-yl)furan-2-yl)methylamino)-N-hydroxyhexanamide], which IC50 [2] is on record?
The IC50 was 100 to 1000 nM.

What about the IC50 ([3]; read-out: EGFR IC50 grading) of the same compound?
Its IC50 is less than 100 nM.

And the IC50 [4]?
The IC50 was less than 100 nM.

What about the melting point of the same compound?
Its melting point is 121 °C.

With `C#Cc1cccc(Nc2ncnc3cc(OC)c(OCCCCCCC(=O)NO)cc23)c1` [Compound 12, 7-(4-(3-ethynylphenylamino)-7-methoxyquinazolin-6-yloxy)-N-hydroxyheptanamide] as the compound, how does the stability of solution ([5]; 25 mg/ml in 30% Captisol with tartaric acid) read?
Its stability of solution is “stable at room temperature”.

And the “chemically stable and in solution without precipitation after dilution” value ([5]; formulations from A (i), diluted with D5W 10-, 20-, and 50-fold)?
Its value is greater than 48 h.

What about the “remained in solution without precipitation after dilution” value ([5]; formulations from A (ii) citric acid, A (iii) hydrochloric acid, A (iiii) sodium salt, diluted with D5W 10-fold) of the same compound?
The value was greater than 12 h.

And the “chemical stability of lyophilisate” value ([5]; lyophilisate from A (i) (tartaric acid, 25 mg/ml), −20° C., room temperature, and 40° C.)?
The value was “at least 2 weeks”.

And the “storage of lyophilisate without decomposition” value ([5]; lyophilisate from A (i), 4° C.)?
The value was “greater than 2 weeks”.

And the stability of lyophilisate ([5]; lyophilisate from A (iii) (hydrochloric acid), −20° C.)?
Its stability of lyophilisate is “at least two weeks”.

What about the “plasma concentration versus dose” value [6] of the same compound?
Its value is “proportional to the dose”.

And the “activity in EFGR enzyme assay compared with erlotinib” value ([3]; FIG. 1)?
Its value is “more active”.

And the “histone H3/H4 acetylation accumulation compared with SAHA” value [7]?
Its value is “improvement”.

What about the AUC ([8]; Lung) of the same compound?
The AUC was 4433 ng·h/mL.

What about the Cmax ([8]; Lung) of the same compound?
The Cmax was 7.8 µM.

And the AUC ([8]; Plasma)?
The AUC was 3751 ng·h/mL.

And the Cmax ([8]; Plasma)?
Its Cmax is 8.5 µM.

And the “T ½” value ([8]; Plasma)?
Its value is 0.26 h.

And the “dose not resulting in a significant change in body weight” value [9]?
Its value is “up to 200 mg/kg”.

What about the “dose not resulting in a significant change in body weight” value [10] of the same compound?
The value was “up to 100 mg/kg”.

And the “inhibition of EGFR phosphorylation compared with Erlotinib” value [11]?
Its value is “improvement”.

And the “cell apoptosis measured by increased Caspase 3&7 activity, times more” value [12]?
Its value is 4-11 times.

And the “attenuation of tumor growth” value [13]?
Its value is “greater attenuation of tumor growth than either erlotinib (po) or vehicle”.

What about the IC50 [14] of the same compound?
Its IC50 is no more than 50 nM.

What about the “dose not resulting in a significant change in body weight” value [15] of the same compound?
Its value is “up to 200 mg/kg”.

What about the “activity in various cancer cell lines compared with Erlotinib and SAHA” value [16] of the same compound?
Its value is “more active than Erlotinib and SAHA”.

What about the “dose proportionality of concentration” value ([17]; 20 and 60 mg/kg, iv and ip) of the same compound?
Its value is “dose proportional when administered intravenously but not intraperitoneally”.

And the “T ½” value ([17]; IP Dose 20 mg/kg, Lung)?
Its value is 2.2 h.

What about the AUC ([17]; IV Dose 20 mg/kg, Colon) of the same compound?
Its AUC is 5529 ng·h/mL.

What about the Cmax ([17]; IV Dose 20 mg/kg, Colon) of the same compound?
The Cmax was 8.5 µM.

And the “T ½” value ([17]; IV Dose 20 mg/kg, Colon)?
The value was 1.7 h.

What about the AUC ([17]; IV Dose 20 mg/kg, Lung) of the same compound?
The AUC was 1571 ng·h/mL.

What about the Cmax ([17]; IV Dose 20 mg/kg, Lung) of the same compound?
The Cmax was 15.2 µM.

And the “T ½” value ([17]; IV Dose 20 mg/kg, Lung)?
The value was 3.9 h.

What about the AUC ([17]; IV Dose 20 mg/kg, Plasma) of the same compound?
The AUC was 715 ng·h/mL.

What about the Cmax ([17]; IV Dose 20 mg/kg, Plasma) of the same compound?
The Cmax was 27.7 µM.

What about the “T ½” value ([17]; IV Dose 20 mg/kg, Plasma) of the same compound?
The value was 0.2 h.

And the “half-life in tissue compared with plasma” value [17]?
Its value is “greater than that in plasma”.

Which IC50 [2] does the source give for `COc1cc2ncnc(NCc3ccc(F)c(Cl)c3)c2cc1OCCCCCCC(=O)NO` [Compound 88, 7-(4-(3-chloro-4-fluorobenzylamino)-7-methoxyquinazolin-6-yloxy)-N-hydroxyheptanamide] here?
Its IC50 is less than 100 nM.

What about the IC50 [4] of the same compound?
Its IC50 is 1000 to 10000 nM.

What about the melting point of the same compound?
Its melting point is 143.1 °C (dec.).
